Experimental data: PMC11078216, “Discovery of potent and selective activity-based probes (ABPs) for the deubiquitinating enzyme USP30” (RSC Chemical Biology, 2024)

Key:
[1] = target: T1, USP30 (Homo sapiens, UniProt Q70CQ3); experiment: In-cell target engagement using HA-Ub-VME competition, immunoblot; type: cell-based; conditions: HEK293T cells, 1 hour, in-lysate HA-Ub-VME competition, western blot
T1 construct: We next determined cellular engagement of endogenous USP30 with IMP-2587 or IMP-2586; endogenous in cells; host or cells: HEK293T
T1 sequence (Q70CQ3 1-517): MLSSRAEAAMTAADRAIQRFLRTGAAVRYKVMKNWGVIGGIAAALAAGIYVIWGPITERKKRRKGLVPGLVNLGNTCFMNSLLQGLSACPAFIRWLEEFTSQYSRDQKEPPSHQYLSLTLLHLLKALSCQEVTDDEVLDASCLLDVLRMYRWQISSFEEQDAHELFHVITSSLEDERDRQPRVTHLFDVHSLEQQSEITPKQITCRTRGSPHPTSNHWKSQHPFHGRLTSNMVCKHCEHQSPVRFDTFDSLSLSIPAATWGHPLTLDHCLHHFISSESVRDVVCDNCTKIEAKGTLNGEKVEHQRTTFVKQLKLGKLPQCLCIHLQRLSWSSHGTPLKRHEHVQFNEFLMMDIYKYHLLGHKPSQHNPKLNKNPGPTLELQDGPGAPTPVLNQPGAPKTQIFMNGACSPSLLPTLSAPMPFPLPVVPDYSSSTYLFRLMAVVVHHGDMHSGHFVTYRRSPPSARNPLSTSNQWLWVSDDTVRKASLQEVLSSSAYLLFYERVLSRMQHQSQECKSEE
Method: (§1) We next determined cellular engagement of endogenous USP30 with IMP-2587 or IMP-2586. […] In-cell concentration-dependent competition by IMP-2587 and IMP-2586 for USP30 were confirmed below 100 nM probe (Fig. 2b and c), whilst engagement of an exemplar unrelated DUB, UCHL1, occurred only at a much higher concentration (30 000 nM). We hypothesise that incomplete modification of USP30 by HA-Ub-VME is likely due to limited retention of USP30 activity in cell lysates, which have likely had the USP30 transmembrane domain compromised, highlighting the potential utility of a small molecule USP30 ABP applicable directly in intact cells. Direct USP30 target engagement by IMP-2587 and IMP-2586 was confirmed in HEK293T cells following 1 h probe treatment followed by cell lysis and CuAAC bio-orthogonal ligation to capture reagent azido-TAMRA-biotin (AzTB) for IMP-2587 or alkyne-TAMRA-biotin for IMP-2586 (Fig. 3a).[27] […] This unspecific background labelling is presumably due to the previously reported higher off-target CuAAC reactivity of an alkyne-bearing capture reagent, applied here due to incorporation of an azide tag in IMP-2586.[28] Moreover, the labelling of USP30 was further confirmed by biotin pulldown and immunoblotting.
(§2) 2) USP30 in-cell engagement analysis […]
(§3) Protein concentration was determined by DC Protein assay (Bio-RAD). […]

[2] = target: T2, UCHL1 (Homo sapiens, UniProt P09936); experiment: as above; type: cell-based; parameters: endogenous in cells; host or cells: HEK293T; conditions: HEK293T cells, 1 hour, in-lysate HA-Ub-VME competition, western blot
T2 sequence (P09936 1-223): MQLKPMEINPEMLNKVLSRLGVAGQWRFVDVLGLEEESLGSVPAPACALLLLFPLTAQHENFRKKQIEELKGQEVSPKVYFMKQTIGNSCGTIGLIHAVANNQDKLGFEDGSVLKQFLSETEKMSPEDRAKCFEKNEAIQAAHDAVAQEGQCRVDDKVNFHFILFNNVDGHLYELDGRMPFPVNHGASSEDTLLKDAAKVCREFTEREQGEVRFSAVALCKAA
Method: as §1, §2, §3

Compound | probe concentration at which in-cell competition for USP30 was confirmed [1] | concentration at which UCHL1 engagement occurred [2]
N#CN1CC[C@@H](NC(=O)c2cc(-c3ccccc3Oc3ccc(N=[N+]=[N-])cc3)n[nH]2)C1 [IMP-2586] | below 100 nM | 30 000 nM
C#Cc1cccc(-c2cc(NC(=O)CC3CCN(C#N)C3)on2)c1 (stereo not shown) [IMP-2587] | below 100 nM | 30 000 nM
